In patent US20150344540A1, “NOVEL GLP-1 RECEPTOR AGONISTS WITH CHOLESTEROL EFFLUX ACTIVITY” (NOVO NORDISK A/S, priority 2012, published 2015):
pEC50: −log10 of the molar value. Read-outs that look alike come from different tables or passages of the source. Where a SMILES comes first, the peptide text is derived from it. Where no end group is shown, it is not given here. [ ]: non-standard residue; d: D form. Aib = CC(C)(N)C(=O)O

What was measured:
[1] = tested on: Mouse monocyte/macrophage cell line, RAW 264.7; assay: Cholesterol efflux assay (3H-cholesterol, macrophage cell line); format: cell-based; conditions: RAW 264.7, 4 hrs incubation, 0.1% human serum albumin, ABCA1-mediated efflux
human GLP-1 receptor = human GLP-1 receptor (Homo sapiens, UniProt P43220); assay: Functional GLP-1 receptor assay, in vitro potency (CRE luciferase; whole cells); format: cell-based; conditions: BHK cells expressing human GLP-1 receptor
human GLP-1 receptor, sequence (P43220 24-463): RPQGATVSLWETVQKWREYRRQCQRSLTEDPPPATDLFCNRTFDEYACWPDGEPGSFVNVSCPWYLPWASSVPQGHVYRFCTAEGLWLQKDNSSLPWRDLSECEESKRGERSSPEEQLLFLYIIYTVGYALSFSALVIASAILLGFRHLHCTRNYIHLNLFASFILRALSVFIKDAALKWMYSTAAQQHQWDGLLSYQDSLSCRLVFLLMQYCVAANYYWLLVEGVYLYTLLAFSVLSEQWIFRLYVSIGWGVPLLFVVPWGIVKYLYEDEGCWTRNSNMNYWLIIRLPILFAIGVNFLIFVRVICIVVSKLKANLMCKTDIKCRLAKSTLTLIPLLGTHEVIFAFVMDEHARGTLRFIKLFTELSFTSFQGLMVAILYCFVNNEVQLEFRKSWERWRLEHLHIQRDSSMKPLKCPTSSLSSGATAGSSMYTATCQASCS

[2] = GLP1R CRE luc 1% HSA EC50 Mean Value, 1% HSA
[3] = 0% HSA, read-out: GLP1R CRE luc 0% HSA EC50 Mean Value

Q: For `CC[C@H](C)[C@H](NC(=O)[C@H](Cc1ccccc1)NC(=O)[C@H](CCC(=O)O)NC(=O)[C@H](CCCNC(=N)N)NC(=O)[C@@H](NC(=O)[C@H](C)NC(=O)[C@H](CCC(=O)O)NC(=O)CNC(=O)[C@H](CCC(=O)O)NC(=O)[C@H](CCSC)NC(=O)[C@H](CCC(N)=O)NC(=O)[C@H](CCCCN)NC(=O)[C@H](CO)NC(=O)[C@H](CC(C)C)NC(=O)[C@H](CC(=O)O)NC(=O)[C@H](CO)NC(=O)[C@@H](NC(=O)[C@H](Cc1ccccc1)NC(=O)[C@@H](NC(=O)CNC(=O)[C@H](CCC(=O)O)NC(=O)C(C)(C)NC(=O)[C@@H](N)Cc1c[nH]cn1)[C@@H](C)O)[C@@H](C)O)C(C)C)C(=O)N[C@@H](CCC(=O)O)C(=O)N[C@@H](Cc1c[nH]c2ccccc12)C(=O)N[C@@H](CC(C)C)C(=O)N[C@@H](CCCCN)C(=O)N[C@@H](CC(N)=O)C(=O)N[C@@H](CCCCN)C(=O)NC(C)(C)C(=O)N[C@@H](CC(C)C)C(=O)N[C@@H](CCC(=O)O)C(=O)N[C@@H](Cc1ccccc1)C(=O)N[C@@H](CC(C)C)C(=O)N[C@@H](CCC(=O)O)C(=O)N[C@@H](CC(C)C)C(=O)N[C@@H](CC(C)C)C(N)=O` [Compound 2, [Aib2, Glv16,Glu21,Lys29,Aib30,Leu31,Glu32,Phe33,Leu34,Glu35,Leu36,Leu371-Exendin-4-(1-37)-peptide amide] (H-H[Aib]EGTFTSDLSKQMEGEAVREFIEWLKNK[Aib]LEFLELL-NH2; N-terminus assumed), which “4 h Cholesterol Efflux Emax” value [1] is on record?
A: 83%

Q: With `CC[C@H](C)[C@H](NC(=O)[C@H](Cc1ccccc1)NC(=O)[C@H](CCC(=O)O)NC(=O)[C@H](CCCCN)NC(=O)[C@@H](NC(=O)C(C)(C)NC(=O)[C@H](CCC(=O)O)NC(=O)CNC(=O)[C@H](CCC(=O)O)NC(=O)[C@H](CC(C)C)NC(=O)[C@H](Cc1ccc(O)cc1)NC(=O)[C@H](CO)NC(=O)[C@H](CO)NC(=O)[C@@H](NC(=O)[C@H](CC(=O)O)NC(=O)[C@H](CO)NC(=O)[C@@H](NC(=O)[C@H](Cc1ccccc1)NC(=O)[C@@H](NC(=O)CNC(=O)[C@H](CCC(=O)O)NC(=O)C(C)(C)NC(=O)[C@@H](N)Cc1c[nH]cn1)[C@@H](C)O)[C@@H](C)O)C(C)C)C(C)C)C(=O)NC(C)(C)C(=O)N[C@@H](Cc1c[nH]c2ccccc12)C(=O)N[C@@H](CC(C)C)C(=O)N[C@H](C(=O)N[C@@H](CCC(=O)O)C(=O)N[C@@H](CCCCN)C(=O)NC(C)(C)C(=O)N[C@@H](CCCCN)C(=O)N[C@@H](CCC(=O)O)C(=O)N[C@@H](Cc1ccccc1)C(=O)N[C@@H](CC(C)C)C(N)=O)C(C)C` [Compound 3, [Aib8,Glu23,Aib24,Val25,Aib30,Glu34,Lys35,Aib36,Lys37]-GLP-1-(7-37)-peptidyl-Glu-Phe-Leu amide] (H-H[Aib]EGTFTSDVSSYLEGE[Aib]VKEFI[Aib]WLVEK[Aib]KEFL-NH2) as the molecule, how does the “4 h Cholesterol Efflux Emax” value [1] read?
A: 82%

Q: `CC[C@H](C)[C@H](NC(=O)[C@H](Cc1ccccc1)NC(=O)[C@H](CCC(=O)O)NC(=O)[C@H](CCCCN)NC(=O)[C@@H](NC(=O)[C@H](C)NC(=O)[C@H](CCC(=O)O)NC(=O)CNC(=O)[C@H](CCC(=O)O)NC(=O)[C@H](CC(C)C)NC(=O)[C@H](Cc1ccc(O)cc1)NC(=O)[C@H](CO)NC(=O)[C@H](CO)NC(=O)[C@@H](NC(=O)[C@H](CC(=O)O)NC(=O)[C@H](CO)NC(=O)[C@@H](NC(=O)[C@H](Cc1ccccc1)NC(=O)[C@@H](NC(=O)CNC(=O)[C@H](CCC(=O)O)NC(=O)C(C)(C)NC(=O)[C@@H](N)Cc1c[nH]cn1)[C@@H](C)O)[C@@H](C)O)C(C)C)C(C)C)C(=O)N[C@@H](C)C(=O)N[C@@H](Cc1c[nH]c2ccccc12)C(=O)N[C@@H](CC(C)C)C(=O)N[C@H](C(=O)N[C@@H](CCCCN)C(=O)N[C@@H](CCCCN)C(=O)NC(C)(C)C(=O)N[C@@H](CCCCN)C(=O)N[C@@H](CCC(=O)O)C(=O)N[C@@H](Cc1ccccc1)C(=O)N[C@@H](CC(C)C)C(N)=O)C(C)C` [Compound 9, [Aib8,Glu23,Val25,Lys35,Aib36,Lys37]-GLP-1-(7-37)-peptidyl-Glu-Phe-Leu amide] (H-H[Aib]EGTFTSDVSSYLEGEAVKEFIAWLVKK[Aib]KEFL-NH2) was tested. Which “4 h Cholesterol Efflux Emax” value [1] did it give?
A: 87%

Q: With `CC[C@H](C)[C@H](NC(=O)[C@H](Cc1ccccc1)NC(=O)[C@H](CC(C)C)NC(=O)[C@H](CCCNC(=N)N)NC(=O)[C@@H](NC(=O)[C@H](C)NC(=O)[C@H](CCC(=O)O)NC(=O)CNC(=O)[C@H](CCC(=O)O)NC(=O)[C@H](CCSC)NC(=O)[C@H](CCC(N)=O)NC(=O)[C@H](CCCCN)NC(=O)[C@H](CO)NC(=O)[C@H](CC(C)C)NC(=O)[C@H](CC(=O)O)NC(=O)[C@H](CO)NC(=O)[C@@H](NC(=O)[C@H](Cc1ccccc1)NC(=O)[C@@H](NC(=O)CNC(=O)[C@H](CCC(=O)O)NC(=O)C(C)(C)NC(=O)[C@@H](N)Cc1c[nH]cn1)[C@@H](C)O)[C@@H](C)O)C(C)C)C(=O)N[C@@H](CCC(=O)O)C(=O)N[C@@H](Cc1c[nH]c2ccccc12)C(=O)N[C@@H](CC(C)C)C(=O)N[C@@H](CCCCN)C(=O)N[C@@H](CC(N)=O)C(=O)N[C@@H](CCCCN)C(=O)NC(C)(C)C(=O)N[C@@H](CC(C)C)C(=O)N[C@@H](CCC(=O)O)C(=O)N[C@@H](Cc1ccccc1)C(=O)N[C@@H](CC(C)C)C(=O)N[C@@H](CCC(=O)O)C(=O)N[C@@H](CC(C)C)C(=O)N[C@@H](CC(C)C)C(N)=O` [Compound 12, [Aib2,Gly16,Lys29,Aib30,Leu31,Glu32,Phe33,Leu34,Glu35,Leu36,Leu371-Exendin-4-(1-37)-peptide amide] (H-H[Aib]EGTFTSDLSKQMEGEAVRLFIEWLKNK[Aib]LEFLELL-NH2; N-terminus assumed) as the molecule, how does the “4 h Cholesterol Efflux Emax” value [1] read?
A: 86%

Q: For `CC[C@H](C)[C@H](NC(=O)[C@H](Cc1ccccc1)NC(=O)[C@H](CC(=O)O)NC(=O)[C@H](CCCCN)NC(=O)[C@@H](NC(=O)[C@H](C)NC(=O)[C@H](CC(=O)O)NC(=O)CNC(=O)[C@H](CCC(=O)O)NC(=O)[C@H](CC(C)C)NC(=O)[C@H](Cc1ccc(O)cc1)NC(=O)[C@H](CO)NC(=O)[C@H](CO)NC(=O)[C@@H](NC(=O)[C@H](CC(=O)O)NC(=O)[C@H](CO)NC(=O)[C@@H](NC(=O)[C@H](Cc1ccccc1)NC(=O)[C@@H](NC(=O)CNC(=O)[C@H](CCC(=O)O)NC(=O)C(C)(C)NC(=O)[C@@H](N)Cc1c[nH]cn1)[C@@H](C)O)[C@@H](C)O)C(C)C)C(C)C)C(=O)N[C@@H](C)C(=O)N[C@@H](Cc1c[nH]c2ccccc12)C(=O)N[C@@H](CC(C)C)C(=O)N[C@H](C(=O)N[C@@H](CCC(=O)O)C(=O)N[C@@H](CCCCN)C(=O)NC(C)(C)C(=O)N[C@@H](CCCCN)C(=O)N[C@@H](CCC(=O)O)C(=O)N[C@@H](Cc1ccccc1)C(=O)N[C@@H](CC(C)C)C(N)=O)C(C)C` [Compound 18, [Aib8,Asp23,Val25,Asp27,Glu34,Lys35,Aib36,Lys37]-GLP-1-(7-37)-peptidyl-Glu-Phe-Leu amide] (H-H[Aib]EGTFTSDVSSYLEGDAVKDFIAWLVEK[Aib]KEFL-NH2), which “4 h Cholesterol Efflux Emax” value [1] is on record?
A: 89%

Q: With “HAEGTFTNDMTNYLEGEAVKEFIAWLVEKGKEFL-NH2 [Compound 27, [Asn14,Met16,Thr17,Asn18,Glu23,Val25,Glu34,Lys35,Gly36,Lys37]-GLP-1-(7-37)-peptidyl-Glu-Phe-Leu amide]” as the molecule, how does the pEC50 (human GLP-1 receptor; [2]) read?
A: 10.55

Q: How did the pEC50 (human GLP-1 receptor; [3]) turn out when “HAEGTFTSDVSSYLEEEAVKEFIAWLVEKVKEF-NH2 [Compound 132, [Glu22,Glu23,Val25,Glu34,Lys35,Val36,Lys37]-GLP-1-(7-37)-peptidyl-Glu-Phe amide]” was run?
A: 10.70

Q: And the pEC50 (human GLP-1 receptor; [2])?
A: 11.00

Q: How did the pEC50 (human GLP-1 receptor; [2]) turn out when “HAEGTFTSDVSSYLEEEAVKEFIAWLVEKVKEFL-NH2 [Compound 135, [Glu22,Glu23,Val25,Glu34,Lys35,Val36,Lys37]-GLP-1-(7-37)-peptidyl-Glu-Phe-Leu amide]” was run?
A: 9.94

Q: “HAEGTFTSDVSSYLEGQAAKEFIAWLVEHVKEFL-NH2 [Compound 140, [Glu34,His35,Val36,Lys37]-GLP-1-(7-37)-peptidyl-Glu-Phe-Leu amide]” was tested. Which pEC50 (human GLP-1 receptor; [3]) did it give?
A: 9.99

Q: How did the pEC50 (human GLP-1 receptor; [3]) turn out when “HAEGTFTSDVSSYLEGQAAKEFIAWLVEKVGEFL-NH2 [Compound 108]” was run?
A: 10.23

Q: What about the pEC50 (human GLP-1 receptor; [2]) of the same molecule?
A: 10.77

Q: “HAEGTFTSDVSSYLEGQAAKEFIAWLVEKVHEFL-NH2 [Compound 141]” was tested. Which pEC50 (human GLP-1 receptor; [2]) did it give?
A: 10.52

Q: With “HAEGTFTSDVSSYLEGQAAKEFIAWLVEKVKEF-NH2 [Compound 122, [Glu34,Lys35,Val36,Lys37]-GLP-1-(7-37)-peptidyl-Glu-Phe amide]” as the molecule, how does the pEC50 (human GLP-1 receptor; [3]) read?
A: 10.80

Q: And the pEC50 (human GLP-1 receptor; [2])?
A: 11.30

Q: “HAEGTFTSDVSSYLEGQAAKEFIAWLVEKVKEFL-NH2 [Compound 104, [Glu34,Lys35,Val36,Lys37]-GLP-1-(7-37)-peptidyl-Glu-Phe-Leu amide]” was tested. Which pEC50 (human GLP-1 receptor; [3]) did it give?
A: 9.94

Q: And the pEC50 (human GLP-1 receptor; [2])?
A: 10.64

Q: Which results are given for “HAEGTFTSDVSSYLEGQAAKEFIAWLVEKVKEFLE-NH2 [Compound 106, [Glu34,Lys35,Val36,Lys37]-GLP-1-(7-37)-peptidyl-Glu-Phe-Leu-Glu amide]”?
A: pEC50 (human GLP-1 receptor; [3]): 9.94; pEC50 (human GLP-1 receptor; [2]): 10.55

Q: “HAEGTFTSDVSSYLEGQAAKEFIAWLVEKVKEFY-NH2 [Compound 131, [Glu34,Lys35,Val36,Lys37]-GLP-1-(7-37)-peptidyl-Glu-Phe-Tyr amide]” was tested. Which pEC50 (human GLP-1 receptor; [3]) did it give?
A: 10.43

Q: And the pEC50 (human GLP-1 receptor; [2])?
A: 10.85

Q: With “HGEGTFTSDVSSYLEEEAVKEFIAWLVEKVKEF-NH2 [Compound 133, [Gly8,Glu22,Glu23,Val25,Glu34,Lys35,Val36,Lys37]-GLP-1-(7-37)-peptidyl-Glu-Phe amide]” as the molecule, how does the pEC50 (human GLP-1 receptor; [3]) read?
A: 9.98
